Measurements reported in US20240099967A1, “INHALABLE COMPOSITION OF CLOFAZIMINE AND METHODS OF USE THEREOF” (priority 2017, published 2024).

Tests used:
[1] = test system: Mycobacterium leprae, Mycobacterium avium complex (MAC), and M. tuberculosis; details: against mycobacterium such as M. leprae; cited from earlier work
[2] = Geometric particle size distribution by HELOS laser diffraction with RODOS dispersion; format: physicochemical; details: averaged n = 3
[3] = Sabnis et al., 2015; cited from earlier work
J774.A1 macrophages = assay: Flow cytometric quantification of clofazimine uptake and biotransformation to liquid crystals; format: cell-based, murine

| Compound | minimum inhibitory concentration (MIC) [1] [mg/L] | Span [2] | X10 ([2]; first column) [μm] | X10 ([2]; second column) [μm] | X10 ([2]; third column) [μm] | clofazimine solution in methanol that can be formed [3] [%] | cells fluorescent at 660 nm emission (biotransformation to liquid crystals) (J774.A1 macrophages; J774.A1, 24 hours exposure) [%] | cells containing drug, fluorescence at 610 nm emission (crystalline clofazimine) (J774.A1 macrophages; J774.A1, 24 hours exposure, 10,000 cells) [%] | cell proliferation/viability compared to control (J774.A1 cells) |
| --- | --- | --- | --- | --- | --- | --- | --- | --- | --- |
| CC(C)N=c1cc2n(-c3ccc(Cl)cc3)c3ccccc3nc-2cc1Nc1ccc(Cl)cc1 [clofazimine, N,5-bis(4-chlorophenyl)-3-(1-methylethylimino)-5H-phenazin-2-amine] | 0.125 to 2 | 2.62 | 1.55 | 7.90 | 21.96 | 0.1 |  |  |  |
| CC(C)/N=c1\cc2n(-c3ccc(Cl)cc3)c3ccccc3nc-2cc1Nc1ccc(Cl)cc1 [solubilized clofazimine] |  |  |  |  |  |  | 0.21 | 2.48 | significant decrease |
